In patent publication US20030229113A1, “Keratinocyte growth inhibitors and hydroxamic acid derivatives” (priority 2003, published 2003):
Read-outs that look alike come from different tables or passages of the source.

Assays:
[1] = test system: solubilizing enzyme of HB-EGF; test: Inhibition of TPA-stimulated release of HB-EGF from HT-1080 transfectant expressing HB-EGF/alkaline phosphatase fusion protein; type: cell-based, human; details: HT-1080 HB-EGF-AP transfectant, TPA 60 nM for 60 min, AP activity in conditioned medium (OD405)
Description: Human fibrosarcoma HT-1080 stable transfectant expressing fusion protein of HB-EGF and human placental alkaline phosphatase (AP) were used for following experiments.
The cultured transfectant was treated with Trypsin-EDTA solution, and suspended in Minimum Essential Medium (without phenol red; supplemented with 10% heat-inactivated fetal calf serum; MEM) at the concentration of 1×10^5 cells/ml. Each 0.2 ml of the cell suspension was dispensed into individual wells of 96 well microplate, and incubated overnight in the CO2 incubator (37° C.). After the incubation, the conditioned medium was removed, and the wells were washed once with 0.2 ml of phosphate buffered saline. The cells were treated with 0.1 ml of compound solution [compound solutions in dimethylsulfoxide (DMSO) were diluted 100 times with MEM] for 30 min at 37° C. Then the compound solutions were removed, and cells were treated with 0.2 ml of TPA solution (120 μM) of stock solution was diluted to 60 nM with MEM) containing same concentration of the compound for 60 min at 37° C. The cells treated same procedure without compound were used as control.
After these treatments, each 0.1 ml of conditioned medium was transferred to individual wells of new 96 well microplate and incubated at 65° C. for 10 min to inactivate endogenous alkaline phosphatase. One hundred microliter of substrate solution (1 mg/ml of p-nitrophenyl phosphate in 0.01% magnesium chloride/1 M diethanolamine) for AP was added to each well and incubated for 120 min at room temperature in the dark. The OD405 of each well was measured with microplate reader. The IC50 values of the compounds were calculated from the concentration-inhibition curves.

[2] = test system: epidermal hyperplasia induced by TPA; test: TPA-induced epidermal hyperplasia on dorsal skin of mice; type: in vivo, male BALB/c mice; details: ED50; topical in acetone at 1 minute, 24 and 48 hours after TPA; epidermal thickness 72 hours after TPA
Description: After backs of male BALB/c mice were shaved, 20 micro 1 of TPA-acetone solution (50 μM) was applied to the dorsal skin surface in an area of ca. 1 cm^2. A volume of 20 micro 1 of test compound-acetone solution was applied to the same area a minute, 24 hours and 48 hours after TPA application (the treated group). In the non-treated group, acetone was applied instead of the test compound. In the control group, acetone was applied instead of TPA and the test compound. The mice were sacrificed, and the skin tissues treated with TPA or the test compound were excised 72 hours after TPA application. Then the tissues were fixed with 10% formalin and embedded in paraffin according to the conventional method. The vertical sections including the center of the TPA- or the test compound-treated area were prepared and they were stained by hematoxylin-eosin. The epidermal thickness was measured using an ocular microscope. The amount of the test compound required for achieving 50% inhibition against the mean epidermal thickness of the non-treated group (ED50) was calculated, wherein the mean epidermal thickness of the non-treated group was 100% and that of the control group was 0%.

| SMILES | IC50 ([1]; read-out: IC50) [nM] | Amount of test compound required for 50% suppression of epidermal hyperplasia [2] | IC50 [1] [nM] |
| --- | --- | --- | --- |
| O=C(NO)C1Cc2nccnc2CN1S(=O)(=O)c1ccc(OC(F)(F)F)cc1 (single isomer, unassigned; (+)) [the compound(17), (+)-N-Hydroxy-6-(4-trifluoromethoxybenzenesulfonyl)-5,6,7,8-tetrahydropyrido[3,4-b]pyrazine-7-carboxamide] | 330 | 48 10^−6 g/cm^2 | – |
| CCOCCOc1ccc(S(=O)(=O)N2Cc3nccnc3CC2C(=O)NO)cc1 (single isomer, unassigned; (+)) [the compound(27), (+)-N-Hydroxy-6-[4-(2-ethoxyethoxy)benzenesulfonyl]-5,6,7,8-tetrahydropyrido[3,4-b]pyrazine-7-carboxamide] | 36 | 58 10^−6 g/cm^2 | – |
| CC(=O)OCCOc1ccc(S(=O)(=O)N2Cc3nccnc3CC2C(=O)NO)cc1 (single isomer, unassigned; (+)) [the compound(33), (+)-N-Hydroxy-6-[4-(2-acetoxyethoxy)benzenesulfonyl]-5,6,7,8-tetrahydropyrido[3,4-b]pyrazine-7-carboxamide] | 400 | – | – |
| O=C(NO)C1Cc2nccnc2CN1S(=O)(=O)c1ccc(OCCO)cc1 (single isomer, unassigned; (+)) [the compound(34), (+)-N-Hydroxy-6-[4-(2-hydroxyethoxy)benzenesulfonyl]-5,6,7,8-tetrahydropyrido[3,4-b]pyrazine-7-carboxamide] | 1500 | – | – |
| CSc1ccc(S(=O)(=O)N2Cc3nccnc3CC2C(=O)NO)cc1 (single isomer, unassigned; (+)) [the compound(35), (+)-N-Hydroxy-6-(4-methylthiobenzenesulfonyl)-5,6,7,8-tetrahydropyrido[3,4-b]pyrazine-7-carboxamide] | 1500 | – | – |
| O=C(NO)C1Cc2nccnc2CN1S(=O)(=O)c1ccccc1 (single isomer, unassigned; (+)) [the compound(36), (+)-N-Hydroxy-6-benzenesulfonyl-5,6,7,8-tetrahydropyrido[3,4-b]pyrazine-7-carboxamide] | 510 | 130 10^−6 g/cm^2 | – |
| O=C(NO)C1Cc2nccnc2CN1S(=O)(=O)c1ccc(F)cc1 (single isomer, unassigned; (+)) [the compound(37), (+)-N-Hydroxy-6-(4-fluorobenzenesulfonyl)-5,6,7,8-tetrahydropyrido[3,4-b]pyrazine-7-carboxamide] | 810 | 120 10^−6 g/cm^2 | – |
| CCCCCCc1ccc(S(=O)(=O)N2Cc3nccnc3CC2C(=O)NO)cc1 (single isomer, unassigned; (+)) [the compound(38), (+)-N-Hydroxy-6-(4-hexylbenzenesulfonyl)-5,6,7,8-tetrahydropyrido[3,4-b]pyrazine-7-carboxamide] | 1700 | – | – |
| Nc1ccc(S(=O)(=O)N2Cc3nccnc3CC2C(=O)NO)cc1 (single isomer, unassigned; (+)) [the compound(39), (+)-N-Hydroxy-6-(4-aminobenzenesulfonyl)-5,6,7,8-tetrahydropyrido[3,4-b]pyrazine-7-carboxamide] | 1800 | – | – |
| O=C(NO)C1Cc2nccnc2CN1S(=O)(=O)c1ccc(-c2ccccc2)cc1 (single isomer, unassigned; (+)) [the compound(40), (+)-N-Hydroxy-6-(biphenyl-4-sulfonyl)-5,6,7,8-tetrahydropyrido[3,4-b]pyrazine-7-carboxamide] | 1500 | 20 10^−6 g/cm^2 | – |
| O=C(NO)C1Cc2nccnc2CN1S(=O)(=O)c1ccc(O)cc1 (single isomer, unassigned; (+)) [the compound(41), (+)-N-Hydroxy-6-(4-hydroxybenzenesulfonyl)-5,6,7,8-tetrahydropyrido[3,4-b]pyrazine-7-carboxamide] | 300 | – | – |
| CC(=O)c1ccc(S(=O)(=O)N2Cc3nccnc3CC2C(=O)NO)cc1 (single isomer, unassigned; (+)) [the compound(42), (+)-N-Hydroxy-6-(4-acetylbenzenesulfonyl)-5,6,7,8-tetrahydropyrido[3,4-b]pyrazine-7-carboxamide] | 2200 | – | – |
| CCCc1ccc(S(=O)(=O)N2Cc3nccnc3CC2C(=O)NO)cc1 (single isomer, unassigned; (+)) [the compound(43), (+)-N-Hydroxy-6-(4-propylbenzenesulfonyl)-5,6,7,8-tetrahydropyrido[3,4-b]pyrazine-7-carboxamide] | 1900 | – | – |
| C=Cc1ccc(S(=O)(=O)N2Cc3nccnc3CC2C(=O)NO)cc1 (single isomer, unassigned; (+)) [the compound(44), (+)-N-Hydroxy-6-(4-vinylbenzenesulfonyl)-5,6,7,8-tetrahydropyrido[3,4-b]pyrazine-7-carboxamide] | 1100 | – | – |
| O=C(NO)C1Cc2nccnc2CN1S(=O)(=O)c1ccc(OCCCc2ccccc2)cc1 (single isomer, unassigned; (+)) [the compound(45), (+)-N-Hydroxy-6-[4-(3-phenylpropoxy)benzenesulfonyl]-5,6,7,8-tetrahydropyrido[3,4-b]pyrazine-7-carboxamide] | – | – | 630 |
| O=C(NO)C1Cc2nccnc2CN1S(=O)(=O)c1cccs1 (single isomer, unassigned; (+)) [the compound(46), (+)-N-Hydroxy-6-[(thiophen-2-yl)sulfonyl]-5,6,7,8-tetrahydropyrido[3,4-b]pyrazine-7-carboxamide] | – | 69 10^−6 g/cm^2 | 960 |
| O=C(NO)C1Cc2nccnc2CN1S(=O)(=O)/C=C/c1ccccc1 (single isomer, unassigned; (+)) [the compound(47), (+)-N-Hydroxy-6-(2-trans-phenylethenesulfonyl)-5,6,7,8-tetrahydropyrido[3,4-b]pyrazine-7-carboxamide] | 1900 | – | – |
| CS(=O)(=O)CCCOc1ccc(S(=O)(=O)N2Cc3nccnc3CC2C(=O)NO)cc1 (single isomer, unassigned; (+)) [the compound(48), (+)-N-Hydroxy-6-[4-(3-methansulfonylpropoxy)benzenesulfonyl]-5,6,7,8-tetrahydropyrido[3,4-b]pyrazine-7-carboxamide] | 1800 | – | – |
| CNC(=O)C(NC(=O)C(CC(C)C)C(C)C(=O)NO)c1ccccc1 [the compound a, [4-(N-hydroxyamino)-2 (R)-isobutyl-3-methylsuccinyl]-L-phenylglycine-N-methylamide, reference compound] | 430 | – | – |
| CNC(=O)C(Cc1cccc2c1CCCC2)NC(=O)C(CC(C)C)C(C)C(=O)NO [the compound b, [4-(N-hydroxyamino)-2 (R)-isobutyl-3-methylsuccinyl]-L-3-(5,6,7,8-tetrahydro-1-naphtyl)alanine-N-methylamide, reference compound] | 120 | – | – |
| CNC(=O)[C@@H](NC(=O)[C@H](CC(C)C)C(CN1CCc2ccccc2C1)C(=O)NO)c1ccccc1 (stereo partly drawn) [the compound c, [4-(N-hydroxyamino)-2 (R)-isobutyl-3-(1,2,3,4-tetrahydro-isoquinolylmethyl)succinyl]-L-phenylglycine —N-methylamide, reference compound] | 54 | 190 10^−6 g/cm^2 | – |
| CNC(=O)C(Cc1ccccc1)NC(=O)C(C(C)C)C(C)C(=O)NO [the compound e, 4-(N-hydroxyamino)-2 (R)-isopropyl-3-methylsuccinyl-L-phenylalanine-N-methylamide, reference compound] | 100 | – | – |
| CNC(=O)C(Cc1ccccc1)NC(=O)C(CC(C)C)C(C)C(=O)NO [the compound f, 4-(N-hydroxyamino)-2 (R)-isobutyl-3-methylsuccinyl-L-phenylalanine-N-methylamide, reference compound] | 100 | – | – |
| COc1ccc(S(=O)(=O)N2C(C)c3nccnc3C(C)C2C(=O)NO)cc1 (stereo not drawn) [the compound(49), 7,8-cis-N-Hydroxy-5,8-dimethyl-6-(4-methoxybenzenesulfonyl)-5,6,7,8-tetrahydropyrido[3,4-b]pyrazine-7-carboxamide] | 5600 | – | – |
